Test results published in PubChem BioAssay (NCI).
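Five compound concentrations were applied to cells in 96-well plates for 48 hours; endpoints were derived by simple linear interpolation of the resulting dose-response curve. Here, GI50 denotes the concentration required for 50% inhibition of growth. At the TGI there is no net growth.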

Tests used:
Test in all cases: NCI tumour cell line growth inhibition, 48 h
UO-31 renal = system: UO-31 renal
MOLT-4 leukemia = system: MOLT-4 leukemia
HOP-92 NSCLC = system: HOP-92 NSCLC
IGROV1 ovarian = system: IGROV1 ovarian
MALME-3M melanoma = system: MALME-3M melanoma
SW-620 colon = system: SW-620 colon
RPMI-8226 leukemia = system: RPMI-8226 leukemia
SR leukemia = system: SR leukemia
HS 578T breast = system: HS 578T breast
DU-145 prostate = system: DU-145 prostate
HOP-62 NSCLC = system: HOP-62 NSCLC
UACC-257 melanoma = system: UACC-257 melanoma
A498 renal = system: A498 renal
786-0 renal = system: 786-0 renal
HCT-15 colon = system: HCT-15 colon
NCI-H522 lung = system: NCI-H522 lung
NCI/ADR-RES ovarian = system: NCI/ADR-RES ovarian
OVCAR-5 ovarian = system: OVCAR-5 ovarian
T-47D breast = system: T-47D breast
K-562 leukemia = system: K-562 leukemia
COLO 205 colon = system: COLO 205 colon
NCI-H226 lung = system: NCI-H226 lung
OVCAR-8 ovarian = system: OVCAR-8 ovarian
HT29 colon = system: HT29 colon
NCI-H460 lung = system: NCI-H460 lung
HL-60(TB) leukemia = system: HL-60(TB) leukemia
A549 NSCLC = system: A549 NSCLC
BT-549 breast = system: BT-549 breast
SF-539 CNS = system: SF-539 CNS
OVCAR-4 ovarian = system: OVCAR-4 ovarian
KM12 colon = system: KM12 colon
SN12C renal = system: SN12C renal
MDA-MB-435 = system: MDA-MB-435
CCRF-CEM leukemia = system: CCRF-CEM leukemia
HCC-2998 colon = system: HCC-2998 colon
MDA-MB-231 breast = system: MDA-MB-231 breast
OVCAR-3 ovarian = system: OVCAR-3 ovarian
SK-MEL-2 melanoma = system: SK-MEL-2 melanoma
RXF 393 renal = system: RXF 393 renal
SF-295 CNS = system: SF-295 CNS
SK-MEL-5 melanoma = system: SK-MEL-5 melanoma
SF-268 CNS = system: SF-268 CNS
HCT-116 colon = system: HCT-116 colon
SNB-75 CNS = system: SNB-75 CNS
PC-3 prostate = system: PC-3 prostate
UACC-62 melanoma = system: UACC-62 melanoma
CAKI-1 renal = system: CAKI-1 renal
U251 CNS = system: U251 CNS
SNB-19 CNS = system: SNB-19 CNS

## COc1cnc2c(c1)C(=O)c1c-2n(CCCNC(C)C)c(=O)c2cc(Cl)ccc12
UO-31 renal
  GI50: 498 nM
  TGI: 2040 nM
MOLT-4 leukemia
  GI50: 39.7 nM
  TGI: 452 nM
HOP-92 NSCLC
  GI50: 1050 nM
  TGI: 2440 nM
IGROV1 ovarian
  GI50: 756 nM
  TGI: 2320 nM
MALME-3M melanoma
  GI50: 1500 nM
  TGI: 3070 nM
SW-620 colon
  GI50: 50.3 nM
  TGI: 1710 nM
RPMI-8226 leukemia
  GI50: 1210 nM
  TGI: 3350 nM
SR leukemia
  GI50: 57.7 nM
  TGI: 464 nM
HS 578T breast
  GI50: 1520 nM
  TGI: 4080 nM
DU-145 prostate
  GI50: 173 nM
  TGI: 2060 nM
HOP-62 NSCLC
  GI50: 70.9 nM
  TGI: 1530 nM
UACC-257 melanoma
  GI50: 12100 nM
  TGI: 32800 nM
A498 renal
  GI50: 334 nM
  TGI: 5270 nM
786-0 renal
  GI50: 438 nM
  TGI: 1980 nM
HCT-15 colon
  GI50: 1080 nM
  TGI: 2780 nM
NCI-H522 lung
  GI50: 133 nM
  TGI: 1970 nM
NCI/ADR-RES ovarian
  GI50: 301 nM
  TGI: 2750 nM
OVCAR-5 ovarian
  GI50: 1700 nM
  TGI: 3500 nM
T-47D breast
  GI50: 278 nM
  TGI: 2550 nM
K-562 leukemia
  GI50: 451 nM
  TGI: 2130 nM
COLO 205 colon
  GI50: 111 nM
  TGI: 2000 nM
NCI-H226 lung
  GI50: 1580 nM
  TGI: 30100 nM
OVCAR-8 ovarian
  GI50: 286 nM
  TGI: 2130 nM
HT29 colon
  GI50: 398 nM
  TGI: 2090 nM
NCI-H460 lung
  GI50: 37.2 nM
  TGI: 1200 nM
HL-60(TB) leukemia
  GI50: 300 nM
  TGI: 1690 nM
A549 NSCLC
  GI50: 90.2 nM
  TGI: 2070 nM
BT-549 breast
  GI50: 698 nM
  TGI: 2590 nM
SF-539 CNS
  GI50: 554 nM
  TGI: 1870 nM
OVCAR-4 ovarian
  GI50: 1040 nM
  TGI: 2700 nM
KM12 colon
  GI50: 1090 nM
  TGI: 2450 nM
SN12C renal
  GI50: 417 nM
  TGI: 2110 nM
MDA-MB-435
  GI50: 1140 nM
  TGI: 2420 nM
CCRF-CEM leukemia
  GI50: 41.9 nM
  TGI: 1060 nM
HCC-2998 colon
  GI50: 1370 nM
  TGI: 2850 nM
MDA-MB-231 breast
  GI50: 1390 nM
  TGI: 3180 nM
OVCAR-3 ovarian
  GI50: 1390 nM
  TGI: 3020 nM
SK-MEL-2 melanoma
  GI50: 13300 nM
  TGI: 34900 nM
RXF 393 renal
  GI50: 568 nM
  TGI: 2010 nM
SF-295 CNS
  GI50: 52.3 nM
  TGI: 1430 nM
SK-MEL-5 melanoma
  GI50: 1140 nM
  TGI: 2380 nM
SF-268 CNS
  GI50: 148 nM
  TGI: 1940 nM
HCT-116 colon
  GI50: 138 nM
  TGI: 1010 nM
SNB-75 CNS
  GI50: 146 nM
  TGI: 1590 nM
PC-3 prostate
  GI50: 948 nM
  TGI: 2570 nM
UACC-62 melanoma
  GI50: 303 nM
  TGI: 1910 nM
CAKI-1 renal
  GI50: 65.2 nM
  TGI: 2150 nM
U251 CNS
  GI50: 65.4 nM
  TGI: 1530 nM
SNB-19 CNS
  GI50: 439 nM
  TGI: 2610 nM
